Measured values as given in US20250099427A1, “Drug and Method of Treating or Preventing Renal Disease Using Drug” (Showa University, priority 2018, published 2025).

Tested on: Acute Renal Disease (Cisplatin Nephropathy) Animal Model
Test: Cisplatin nephropathy model, histopathological study (HE staining)
Format: in vivo, mouse
Conditions: 10 mg/kg 1 day after cisplatin
Experimental: In Tables 13 to 15, the experimental results are expressed in mean±standard error. The RT-PCR results were corrected with the amount of β-Actin as an endogenous control gene. With reference to statistically significant difference, an unpaired test between two groups (Student's t-test) was conducted for comparison between two groups, and one-way analysis of variance was conducted and then a Dunnett test was conducted for comparison among multiple groups. Further, in the histopathological study, a Mann-Whitney U test was conducted, and in all cases, a significance level of 5% or less (P<0.05) was regarded as significant difference.
10 mg/kg of SMTP-7 was administered 1 day after administration of cisplatin, and 3 days later, the kidney was isolated by the same method as in the evaluation of real time RT-PCR, and the histopathological study was conducted.
Formalin-fixed kidney was permeated with paraffin using an automatic embedding device to produce a paraffin block. The paraffin block was sliced into 3 μm sections with a microtome, and placed on a slide glass. Then, the sections were stretched with a paraffin stretcher at 52° C., and sufficiently dried overnight in a paraffin melter at 37° C. After deparaffinization and washing with water, the sections were stained with a Mayer's hematoxylin staining solution for 1 minute and washed with running water for 15 minutes. Thereafter, the sections were stained with an eosin staining solution for 45 seconds, and dehydrated with 80% to 100% ethanol, followed by clearing with xylene and sealing with marinol. Each specimen was examined microscopically at a magnification of 50 using an optical microscope. The degree of damage was examined microscopically at a magnification of 100 and 5 fields of view (1 field=2 mm, 5 fields=10 mm) and scored according to the following criteria. • Score 0: No significant change • Score 1: damage range 1 mm or less • Score 2: damage range 1 to 2 mm • Score 3: damage range 2 to 5 mm • Score 4: damage range 5 mm or more

[1] = Score 1: damage range 1 mm or less
[2] = score 0 (no significant change) to 4 (damage range 5 mm or more), N 7

CC(C)=CCC/C(C)=C/CC[C@@]1(C)Oc2c(c(O)cc3c2CN(CCC[C@@H](C(=O)O)N2Cc4c(cc(O)c5c4O[C@](C)(CC/C=C(\C)CCC=C(C)C)[C@@H](O)C5)C2=O)C3=O)C[C@@H]1O [SMTP-7]
Degeneration Necrosis, animals with Score 0 (Score 0: No significant change): 2/7 | Regeneraed tubules, animals with Score 0 (Score 0: No significant change): 7/7 | Tublar dilatatuon (Hyoline casts), animals with Score 0 (Score 0: No significant change): 6/7 | Degeneration Necrosis, animals with Score 1 [1]: 2/7 | Tublar dilatatuon (Hyoline casts), animals with Score 1 [1]: 1/7 | Degeneration Necrosis, animals with Score 2 (Score 2: damage range 1 to 2 mm): 1/7 | Degeneration Necrosis, animals with Score 3 (Score 3: damage range 2 to 5 mm): 1/7 | Degeneration Necrosis, animals with Score 4 (Score 4: damage range 5 mm or more): 1/7 | Histopathological changes in the proximal tubules, result in words (compared to Control group): the level was lower than that in the Control group and no significant difference was recognized | Degeneration Necrosis, Mean score [2]: 1.6 | Regeneraed tubules, Mean score [2]: 0.0 | Tublar dilatatuon (Hyoline casts), Mean score [2]: 0.1
